Experimental data published in patent publication US20080063628A1, “METHODS TO PROMOTE CELL DIFFERENTIATION” (priority 2006, published 2008).

Legend:
[1] = system: early passage (P5) pancreatic-derived stromal cell line; test: Single trichostatin A dose, 144 h follow-up, gene expression by RT-PCR (Example 6); type: cell-based, human; conditions: 1.25 μM once at 0 h
Experimental: Several cell lines obtained from different amniotic fluid specimens (see Example 14) and pancreas donors (see Example 13) were tested with similar results. Two lines at similar passage number but derived from different amniotic fluid specimens are shown in Table VI-A and Table VI-B for this example. One of these cell lines was also used in examples 2 and 4 above. In addition, this example also contains comparison data in Table VI-C and Table VI-D for a single pancreatic-derived stromal line grown to early and late passage number.
Amniotic fluid derived cells or pancreatic-derived stromal cells were seeded into 24-well tissue culture plates at a density of 5000/cm^2 and cultured in AMNIOMAX (Invitrogen) or DMEM with 10% FBS, respectively, under standard cell culture conditions until confluent. After the cells reached confluency, amniotic fluid derived cells were treated once at time 0 hours with 500 nM trichostatin A. Pancreas-derived stromal cells were treated once at time 0 hours with 1.25 μM trichostatin A. Samples for RT-PCR were taken daily from zero to six days at the times indicated in Table VI.
RNA samples were obtained from the treated cultures up to 144 hours after the initial addition of trichostatin A or DMSO. Culture media was removed, the cells were washed with PBS, and RLT lysis buffer containing β-mercaptoethanol (Qiagen) was added. During culture, the medium was not changed nor was freshly prepared trichostatin A added. RNA was purified using the RNeasy Mini Kit (Qiagen), and RNA quantity and quality was determined using a spectrophotometer. cDNA was made using the iScript cDNA synthesis kit (BioRad).
Samples of 20 ng cDNA were used in each reaction to determine the expression levels of the following genes in amniotic fluid-derived cells: Gata1, HNF-3 beta, Pdx-1, insulin, and Sox17. Similarly, samples of 20 ng cDNA were used in each reaction to determine the expression level of the following genes in pancreatic-derived stromal cells: glucagon, HNF-3 beta, insulin and Pdx-1. Real-Time PCR was performed on the Applied Biosystems 7500, and data was analyzed using the accompanying software according to the methods described in Example 15.
Real-time PCR amplifcation and quantitative analysis. Unless otherwise stated, all reagents were purchased from Applied Biosystems. Real-time PCR reactions were performed using the ABI PRISM™ 7500 Sequence Detection System. TAQMAN™ FAST UNIVERSAL PCR MASTER MIX™ (ABI, CA) was used with 20 ng of reverse transcribed RNA in a total reaction volume of 20 μl. Each cDNA sample was run in duplicate to allow correction of pipetting errors. Primers and FAM-labeled TAQMAN™ probes were used at concentrations of 200 nM. The level of expression for each target gene was normalized using the pre-developed Applied Biosystem's human glyceraldehyde-3-phosphate dehydrogenase (GAPDH) endogenous control kit. Primers and probes were designed using either ABI PRISM PRIMER EXPRESS™ software or a pre-developed ABI gene analysis kit. For each gene, either one of the primers or the probe were designed to be exon-boundary spanning. This eliminated the possibility of the primers/probe binding to any genomic DNA present. The primer and probe sets are listed as follows: Pdx-1 (Hs00426216), Insulin (Hs00355773), glucagon (Hs00174967), and FoxA2 (HNF 3-beta) (Hs00232764). The remaining primers were designed using the PRIMERS program (ABI, CA). After an initial 95° C. incubation for 20 sec, samples were cycled 40 times in two stages: a denaturation step at 95° C. for 3 sec, followed by an annealing/extension step at 60° C. for 30 sec.
For each primer/probe set, a cycle time value was determined as the cycle number at which the fluorescence intensity of the PCR reaction reached a specific value in the middle of the exponential region of amplification. An increase in expression of a gene corresponded to a decrease in the number of cycles required for the fluorescence intensity to reach this value.

[2] = system: resting peripheral blood mononuclear cells (PBMCs); test: Trichostatin A treatment of PBMCs, gene expression by RT-PCR (Example 20); type: cell-based, human; conditions: 5 μM
Text: Human peripheral blood mononuclear cells (PBMCs) were isolated from whole blood using Histopaque (Sigma) gradients and standard density centrifugation. PBMCs are a heterogeneous mixture of lymphoid cells including quiescent T-lymphocytes. Cells were washed thoroughly, counted, and resuspended at 1-2×10^6 cells per ml in culture medium containing RPMI-1640 and 10% FCS. Phytohemagglutinin (PHA; Sigma) is a mitogenic lectin that specifically induces T-lymphocyte activation and proliferation. PHA was added to the cell suspension at a final concentration of 10 μg/ml, and PBMCs were cultured for 3 days at 37° C. with 5% CO2. […] At the end of culture, PBMCs were pooled to harvest, washed thoroughly, and resuspended in fresh culture medium with 5 μM trichostatin A diluted in DMSO. A control culture of PHA-treated PBMCs received an equivalent dilution of DMSO alone. Cells were returned to culture for an additional 24 or 48 hours. Alternatively, resting PBMCs were isolated in a similar manner and cultured for 24 or 48 hours total incubation time with either 5 μM trichostatin A or DMSO alone. At the conclusion of culture, cells were harvested and washed with PBS prior to preparation of RNA in RLT lysis buffer with β-mercaptoethanol (Qiagen). RNA was purified using the RNeasy Mini Kit (Qiagen); RNA quantity and quality were determined using a spectrophotometer. CDNA was made using the iScript CDNA synthesis kit (BioRad). Samples of 20 ng CDNA were used in each RT-PCR reaction, performed on the Applied Biosystems 7500. Results were normalized against GAPDH expression levels with data analysis performed using the accompanying software.

CC(/C=C/C(=O)NO)=C\[C@@H](C)C(=O)c1ccc(N(C)C)cc1 [trichostatin A]
HNF (HNF-3 beta) gene expression ([1]; 24 hrs): +++ (detectable at less than 35 cycles by RT-PCR with SE less than 0.9) | Insulin gene expression ([1]; 24 hrs): nd (not detectable at >40 cycles by RT-PCR) | Pdx-1 gene expression ([1]; 24 hrs): +++ (detectable at less than 35 cycles by RT-PCR with SE less than 0.9) | glucagon gene expression ([1]; 24 hrs): +++ (detectable at less than 35 cycles by RT-PCR with SE less than 0.9) | HNF (HNF-3 beta) gene expression ([1]; 48 hrs): nd (not detectable at >40 cycles by RT-PCR) | Insulin gene expression ([1]; 48 hrs): nd (not detectable at >40 cycles by RT-PCR) | Pdx-1 gene expression ([1]; 48 hrs): nd (not detectable at >40 cycles by RT-PCR) | glucagon gene expression ([1]; 48 hrs): + (detectable between 35 and 40 cycles by RT-PCR) | HNF (HNF-3 beta) gene expression ([1]; 72 hrs): nd (not detectable at >40 cycles by RT-PCR) | Insulin gene expression ([1]; 72 hrs): nd (not detectable at >40 cycles by RT-PCR) | Pdx-1 gene expression ([1]; 72 hrs): nd (not detectable at >40 cycles by RT-PCR) | glucagon gene expression ([1]; 72 hrs): + (detectable between 35 and 40 cycles by RT-PCR) | HNF (HNF-3 beta) gene expression ([1]; 96 hrs): nd (not detectable at >40 cycles by RT-PCR) | Insulin gene expression ([1]; 96 hrs): nd (not detectable at >40 cycles by RT-PCR) | Pdx-1 gene expression ([1]; 96 hrs): nd (not detectable at >40 cycles by RT-PCR) | glucagon gene expression ([1]; 96 hrs): +++ (detectable at less than 35 cycles by RT-PCR with SE less than 0.9) | HNF (HNF-3 beta) gene expression ([1]; 120 hrs): nd (not detectable at >40 cycles by RT-PCR) | Insulin gene expression ([1]; 120 hrs): nd (not detectable at >40 cycles by RT-PCR) | Pdx-1 gene expression ([1]; 120 hrs): nd (not detectable at >40 cycles by RT-PCR) | glucagon gene expression ([1]; 120 hrs): nd (not detectable at >40 cycles by RT-PCR) | HNF (HNF-3 beta) gene expression ([1]; 144 hrs): nd (not detectable at >40 cycles by RT-PCR) | Insulin gene expression ([1]; 144 hrs): nd (not detectable at >40 cycles by RT-PCR) | Pdx-1 gene expression ([1]; 144 hrs): nd (not detectable at >40 cycles by RT-PCR) | glucagon gene expression ([1]; 144 hrs): nd (not detectable at >40 cycles by RT-PCR) | HNF-3 beta expression ([2]; 24 or 48 hours): negative | Sox17 expression ([2]; 24 or 48 hours): negative | glucagon expression ([2]; 24 or 48 hours): negative | insulin expression ([2]; 24 or 48 hours): negative | somatostatin expression ([2]; 24 or 48 hours): negative | GAPDH gene expression ([2]; 24 hrs): +++ (detectable at less than 35 cycles by RT-PCR with SE less than 0.9) | GATA4 gene expression ([2]; 24 hrs): + (detectable at greater than 35–40 cycles by RT-PCR) | Gata1 gene expression ([2]; 24 hrs): nd (not detectable at >40 cycles by RT-PCR) | Pdx-1 gene expression ([2]; 24 hrs): nd (not detectable at >40 cycles by RT-PCR) | GAPDH gene expression ([2]; 48 hours): +++ (detectable at less than 35 cycles by RT-PCR with SE less than 0.9) | GATA4 gene expression ([2]; 48 hours): + (detectable at greater than 35–40 cycles by RT-PCR) | Gata1 gene expression ([2]; 48 hours): nd (not detectable at >40 cycles by RT-PCR) | Pdx-1 gene expression ([2]; 48 hours): nd (not detectable at >40 cycles by RT-PCR)
